Results taken from patent US20100254928A1, “NOVEL COMPOSITION CONTAINING OZONIZED SURFACTANT” (priority 2007, published 2010).
“And” between values parts separate entries of the source, which are not always exact repeats. Identical values can stand only once.

Columns and labels:
[1] = tested on: Sprague-Dawley female rats; assay: Single dose oral toxicity test; format: in vivo; design: key to General conditions, 3 hours after administration / General conditions, 1 hour after administration / General conditions, 2 hours after administration: D: diarrhea; LS: loose stool; RF: reddish feces; DL: decrease in locomotor activity; *: the result was observed at 4 hours after administration; settings: for rats that developed symptoms on the administration day: transient, resolved by the 2nd day
Protocol: In order to roughly determine the lethal dose of the ozonized surfactant used for the present invention, an acute single dose oral toxicity test was performed according to “OECD Guideline for Testing of Chemicals, Acute Oral Toxicity-Acute Toxic Class Method”, Revised Guideline 423, adopted on Mar. 22, 1996 and revised on Dec. 17, 2001) by administering the solution A described in Example 4 to 12 Sprague-Dawley [Ctr: CD (SD), SPF ] female rats. Rats were divided into 4 groups each consisting of 3 rats. For each rat, an appropriate liquid volume was calculated based on individual body weight so that the solution A in an amount equivalent to 300 mg/kg of the ozonized surfactant was administered to 2 groups (6 rats) and the solution in an amount equivalent to 2000 mg/kg was administered to the other 2 groups (6 rats), with the use of a gastric tube for rats. (These groups will be hereinafter referred to as 300 mg/kg administration groups and 2000 mg/kg administration groups, respectively.) Counting the administration day as the 1st day, general conditions of the rats were observed until the 15th day, and the number of dead individuals was counted. The general conditions of all the animals were observed once before administration, intermittently for 1 hour after administration, and subsequently about every hour until 3 hours (of some rats until 4 hours) after administration. Since the 2nd day, the observation was repeated daily.
In the table, D, LS, RF and DL mean diarrhea, loose stool, reddish feces and decrease in locomotor activity, respectively.

slug = assay: Insecticidal activity: test of killing slugs; format: in vivo; settings: 1% aqueous solution, 2 pushes: 1.88 mL sprayed from 15 cm above
Protocol: In order to check the insect control performance of the ozonized surfactant, a test of killing slugs was performed. A slug was put into a glass petri dish. Onto the slug, a 1% aqueous solution of the ozonized surfactant obtained in Example 4, 5, 7, 9 or 10 (2 pushes: 1.88 mL) was sprayed from 15 cm above. After that, the time elapsed until the slug died (the motion stopped) was measured. As a control, the same evaluation was simultaneously performed with a commercial insecticide (product name: NEW Namekuji (slug) Spray, made by Sumitomo Chemical Garden Products Inc., Lot No. 11.05 0806JE) containing a natural substituted phenol, a copper compound and an alcohol, as active ingredients.

Pseudomonas aeruginosa = assay: Bactericidal activity test with variation of the period of action; format: cell-based
Protocol: (§1) In order to check the bactericidal activity of the ozonized surfactant, a bactericidal activity test was performed with variation of the period of action.
(§2) Developed colonies were scraped off and a bacterial solution of about 10^8 CFU/mL was prepared.
(§3) Into 50 mL centrifuging tubes, 10 mL each of 0.5% and 0.05% aqueous solutions of the ozonized surfactant obtained in Example 4 were separately poured. To each solution, 0.1 mL of sample bacterial solution was inoculated and mixed for a predetermined period of action at room temperature. To 10 mL of SCDLP bouillon medium (EIKEN CHEMICAL) of which the effectiveness as an inactivator had been confirmed beforehand, 0.1 mL of the resulting solution after a predetermined period of action was added for inactivation of bactericidal components. Then the bacteria count was measured. As a control test, the same operation was performed with the use of an unozonized surfactant or sterile purified water. A 10-fold serial dilution of each sample solution after inactivation was prepared. Each 1 mL of the undiluted and diluted sample solutions were separately mixed with about 20 mL of agar medium, and then cultured. After culturing, the number of colony forming units per 1 mL of each sample solution was counted.

Staphylococcus aureus [2] = assay: as above; format: cell-based
Protocol: as §1, §2, §3

Escherichia coli [3] = assay: as above; format: cell-based
Protocol: as §1, §2, §3

Staphylococcus aureus [4] = assay: Sterilizing activity value test; format: cell-based; settings: 0.5% aqueous solution, contact time 5 min, 25 ± 1° C., vs 0.05 (w/v %) Polysorbate 80 control
Protocol: (§4) In order to check the effect of the ozonized surfactant as a sterilizing detergent, a sterilizing activity test was performed. A 0.5% aqueous solution of the solution obtained in Example 4 was tested based on the sterilizing activity test of home care synthetic detergents and soaps, which is a method set by Detergent and Soap Fair Trade Council. […] Each of the control solution and the test sample solutions described in the table below is applied to a test specimen to which bacteria have been inoculated beforehand. After letting the specimens stand for a certain period of time, the viable bacteria count on each specimen is measured. The sterilizing activity value is obtained by subtracting the common logarithm value of the viable bacteria count on the specimen treated with a test sample from the common logarithm value of the viable bacteria count on the specimen treated with the control. […] In a predetermined period of time, an inactivator is applied to inactivate the property suppressing the growth of bacteria and the property killing bacteria, and subsequently the viable bacteria count on the specimen is determined. […]

Escherichia coli [5] = assay: Sterilizing activity value test; format: cell-based; settings: 0.5% aqueous solution, contact time 5 min, 25 ± 1° C., vs 0.05 (w/v %) Polysorbate 80 control
Protocol: as §4

[6] = 300 mg/kg administration group (6 rats)
[7] = 2000 mg/kg administration group (6 rats)
[8] = 2000 mg/kg oral, per animal, — = no symptom, listed as solution A
[9] = Conc. 0.05%, period of action 10 min
[10] = Conc. 0.05%, period of action 30 min
[11] = Conc. 0.5%, period of action 5 min
[12] = Conc. 0.5%, period of action 10 min
[13] = Conc. 0.5%, period of action 30 min

## Ozonized POE (10 EO) oleyl ether [Example 4]
[1]; [6]
  Death until the 15th day: Death was not found
  rats that developed symptoms on the administration day: 1 rat
[1]; 300 mg/kg oral, per animal, — = no symptom
  General conditions, 3 hours after administration: LS*
[1]; 2-15 days, all 12 rats
  Decrease in locomotor activity (number of animals): 0
  Diarrhea or loose stool (number of animals): 0
  Reddish feces (number of animals): 0
[1]; [7]
  Death until the 15th day: Death was not found
  rats that developed symptoms on the administration day: 5 rats
[1]; [8]
  General conditions, 1 hour after administration: D, DL and D, RF and D (2×)
  General conditions, 2 hours after administration: D
  General conditions, 3 hours after administration: D* and LS and D (2×)
[1]; 300 and 2000 mg/kg, 15 days
  Body weight transition during the observation period: favorable
[1]; 1 hour, all 12 rats
  Decrease in locomotor activity (number of animals): 2
  Reddish feces (number of animals): 1
[1]; 1 hour, all 12 rats (300 and 2000 mg/kg)
  Diarrhea or loose stool (number of animals): 4
[1]; 2 hours, all 12 rats
  Decrease in locomotor activity (number of animals): 0
  Diarrhea or loose stool (number of animals): 3
  Reddish feces (number of animals): 0
[1]; 3 hours, all 12 rats
  Decrease in locomotor activity (number of animals): 0
  Diarrhea or loose stool (number of animals): 5
  Reddish feces (number of animals): 0
[1]; oral, rat
  LD50 cut-off value: infinite
  acute toxicity classification of the GHS: Category 5 or does not correspond to any of the acute toxicity categories
slug
  Death time of slug: 564 s
Pseudomonas aeruginosa; Conc. 0.05%, period of action 5 min, 0 min 4.5 × 10^6
  bacteria count: 1.5 × 10^2 CFU/mL
Pseudomonas aeruginosa; [9]
  bacteria count: <1 × 10^2 CFU/mL
Pseudomonas aeruginosa; [10]
  bacteria count: <1 × 10^2 CFU/mL
Pseudomonas aeruginosa; [11]
  bacteria count: <1 × 10^2 CFU/mL
Pseudomonas aeruginosa; [12]
  bacteria count: <1 × 10^2 CFU/mL
Pseudomonas aeruginosa; [13]
  bacteria count: <1 × 10^2 CFU/mL
Staphylococcus aureus [2]; Conc. 0.05%, period of action 5 min, 0 min 8.2 × 10^6
  bacteria count: <1 × 10^2 CFU/mL
Staphylococcus aureus [2]; [9]
  bacteria count: 1 × 10^2 CFU/mL
Staphylococcus aureus [2]; [10]
  bacteria count: <1 × 10^2 CFU/mL
Staphylococcus aureus [2]; [11]
  bacteria count: <1 × 10^2 CFU/mL
Staphylococcus aureus [2]; [12]
  bacteria count: <1 × 10^2 CFU/mL
Staphylococcus aureus [2]; [13]
  bacteria count: <1 × 10^2 CFU/mL
Escherichia coli [3]; Conc. 0.05%, period of action 5 min, 0 min 3.8 × 10^6
  bacteria count: 4.8 × 10^6 CFU/mL
Escherichia coli [3]; [9]
  bacteria count: <1 × 10^2 CFU/mL
Escherichia coli [3]; [10]
  bacteria count: <1 × 10^2 CFU/mL
Escherichia coli [3]; [11]
  bacteria count: <1 × 10^2 CFU/mL
Escherichia coli [3]; [12]
  bacteria count: <1 × 10^2 CFU/mL
Escherichia coli [3]; [13]
  bacteria count: <1 × 10^2 CFU/mL
Staphylococcus aureus [4]
  sterilizing activity value: 2.8
Escherichia coli [5]
  sterilizing activity value: 4.6
